# pKi: −log10 of the molar value.
# Molecular target: T1, PAF receptor (Oryctolagus cuniculus, UniProt G1TEI7)
# T1 construct: platelet membranes where prepared by centrifugation and washing; tissue Pel-Freez (Rogers, AR) (whole rabbit blood); host or cells: rabbit platelet membranes
# Assay: PAF receptor binding assay ([3H]C18-PAF, rabbit platelet membranes)
# Conditions: inhibition of specific binding of 0.6 nM [3H]C18-PAF to rabbit platelet membranes, 60 min, room temperature; Ki calculated from IC50 by Cheng and Prusoff; read-out: PAF Receptor Binding Activity K1
# Method: The ability of representative compounds of the present invention to inhibit PAF activity was determined in an in vitro test using the following method.
# Citrated whole rabbit blood was obtained from Pel-Freez (Rogers, AR). Rabbit platelets where prepared by centrifugation and washing. The platelets where lysed by freeze-thawing and sonication; platelet membranes where prepared by centrifugation and washing. Final membrane preparations where stored frozen in 10 mM Tris/5 mM MgCl2 /2 mM EDTA (TME buffer, pH 7.0) with 0.25 M sucrose added for membrane stabilization.
# The final volume of the assay was 100 μl. The assay was conducted in Millititre-GV™ (Millipore Corp.) filtration plates; incubation time was for 60 minutes at room temperature (22°-23° C.). "Specific binding" was operationally defined as the arithmetic difference between "total binding" of 0.6 nM [^3 H]C18 -PAF (in the absence of added PAF) and "nonspecific binding" (in the presence of 1 μM PAF). After the prescribed incubation, platelet membranes where filtered under vacuum and washed with 1 millilitre of "binding buffer". The filters was dried and removed. The bound radioactivity was quantitated with a Berthold TLC-Linear Analyzer model LB2842.
# Experiments where repeated at least once.
# T1 sequence (G1TEI7 1-342): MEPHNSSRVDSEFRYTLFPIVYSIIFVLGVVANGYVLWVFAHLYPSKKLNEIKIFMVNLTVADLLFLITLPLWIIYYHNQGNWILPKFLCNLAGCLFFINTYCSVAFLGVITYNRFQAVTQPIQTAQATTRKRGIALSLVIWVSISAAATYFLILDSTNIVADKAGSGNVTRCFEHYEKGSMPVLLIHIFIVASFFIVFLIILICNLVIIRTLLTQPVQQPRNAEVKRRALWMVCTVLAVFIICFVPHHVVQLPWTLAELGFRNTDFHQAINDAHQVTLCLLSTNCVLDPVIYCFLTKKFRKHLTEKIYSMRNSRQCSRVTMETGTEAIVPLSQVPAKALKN
row,Compound,pKi
1,"3-[Pyridin-3-yl)-7-(6-pyrimid-2-ylindol-3-ylcarbonyl)-1H,3H-pyrrolo[1,2-c]thiazole [Example 74]",7.08
2,CC(C)(C)OC(=O)NCCn1cc(C(=O)c2ccn3c2CSC3c2cccnc2)c2ccc(-c3ccc(F)cc3)cc21 (stereo not drawn) [Example 57],7.42

# Same assay, conditions: read-out: PAF Receptor Binding Activity K1
row,Compound,pKi
1,"CNC(=O)n1cc(C(=O)c2ccn3c2C(C)(C)SC3c2cccnc2)c2ccc(-c3ccc(OC)cc3)cc21 (stereo not drawn) [Example 32, 1,1-Dimethyl-3-(pyridin-3-yl)-7-[1-N-methylcarbamoyl-6-(4-methoxyphenyl)indol-3-ylcarbonyl]-1H,3H-pyrrolo[1,2-c]thiazole]",6.82
2,COC(=O)n1cc(C(=O)c2ccn3c2CSC3c2cccnc2)c2ccc(OCc3ccccc3)cc21 (stereo not drawn) [Example 18],7.46
3,"COc1ccc(-c2ccc3c(C(=O)c4ccn5c4CSC5c4cccnc4)c[nH]c3c2)cc1 (stereo not drawn) [Example 38, 3-(Pyridin-3-yl)-7-[6-(4-methoxyphenyl)indol-3-yl]carbonyl-1H,3H-pyrrolo[1,2-c]thiazole]",6.00
4,"COC(=O)CCn1cc(C(=O)c2ccn3c2CSC3c2cccnc2)c2ccc(-c3ccc(F)cc3)cc21 (stereo not drawn) [Example 46, 3-(Pyridin-3-yl)-7-[1-(2-carbomethoxyethyl)-6-(4-fluorophenyl)indol-3-ylcarbonyl]-1H,3H-pyrrolo[1,2-c]thiazole]",8.00
5,"CC(C)(C)OC(=O)n1cc(C(=O)c2ccn3c2C[S+]([O-])C3c2cccnc2)c2ccccc21 (stereo not drawn) [Example 13, 2-Oxide-3-(pyridin-3-yl)-7-(1-tert-butyloxycarbonylindol-3-ylcarbonyl)-1H,3H-pyrrolo[1,2-c]thiazole]",5.66
6,"CNC(=O)n1cc(C(=O)c2ccn3c2CSC3c2cccnc2)c2ccc(-c3ccc(OC)cc3)cc21 (stereo not drawn) [Example 43, 3-(Pyridin-3-yl)-7-[1-N-methylcarbamoyl-6-(4-methoxyphenyl)indol-3-ylcarbonyl]-1H,3H-pyrrolo[1,2-c]thiazole]",7.59
7,"NS(=O)(=O)CCn1cc(C(=O)c2ccn3c2CSC3c2ccc[n+]([O-])c2)c2ccc(-c3ccc(F)cc3)cc21 (stereo not drawn) [Example 79, 3-(3-Oxide-pyridin-3-yl)-7-[1-(2-aminosulfonylethyl)-6-(4-fluorophenyl)indol-3-ylcarbonyl]-1H,3H-pyrrolo[1,2-c]thiazole]",7.74
8,"NC(=O)Cn1cc(C(=O)c2ccn3c2CSC3c2cccnc2)c2ccc(-c3ccc(F)cc3)cc21 (stereo not drawn) [Example 95, 3-(Pyridin-3-yl)-7-[1-carbamoylmethyl-6-(4-fluorophenyl)indol-3-ylcarbonyl]-1H,3H-pyrrolo[1,2-c]thiazole]",8.00
9,"CC1(C)SC(c2cccnc2)n2ccc(C(=O)c3c[nH]c4cc(-c5ccc(F)cc5)ccc34)c21 (stereo not drawn) [Example 36, 1,1-Dimethyl-3-(pyridin-3-yl)-7-[6-(4-fluorophenyl)indol-3-ylcarbonyl]-1H,3H-pyrrolo[1,2-c]thiazole]",5.96
10,"N#CCn1cc(C(=O)c2ccn3c2CSC3c2cccnc2)c2ccc(-c3ccc(F)cc3)cc21 (stereo not drawn) [Example 94, 3-(Pyridin-3-yl)-7-[1-cyanomethyl-6-(4-fluorophenyl)indol-3-ylcarbonyl]-1H,3H-pyrrolo[1,2-c]thiazole]",7.40
11,"CNC(=O)n1cc(C(=O)c2ccn3c2CSC3c2ccc[n+]([O-])c2)c2ccc(-c3ccccc3)cc21 (stereo not drawn) [Example 35, 3-(1-Oxide-pyridin-3-yl)-7-(1-N-methylcarbamoyl-6-phenylindol-3-ylcarbonyl)-1H,3H-pyrrolo[1,2-c]thiazole]",7.36
12,"O=C(c1ccn2c1CSC2c1cccnc1)c1c[nH]c2cc(Cl)ccc12 (stereo not drawn) [Example 47, 3-(Pyridin-3-yl)-7-(6-chloroindol-3-ylcarbonyl)-1H,3H-pyrrolo[1,2-c]thiazole]",6.23
13,"COc1ccc(-c2ccc3c(C(=O)c4ccn5c4C(C)(C)SC5c4cccnc4)cn(C(=O)N(C)C)c3c2)cc1 (stereo not drawn) [Example 26, 1,1-Dimethyl-3-Dimethyl-3-(pyridin-3-yl)-7-[1-N,N-dimethylcarbamoyl-6-(4-methoxyphenyl)indol-3-ylcarbonyl]-1H,3H-pyrrolo[1,2-c]thiazole]",7.26
14,"CN(C)C(=O)n1cc(C(=O)c2ccn3c2C[S+]([O-])C3c2cccnc2)c2ccc(-c3ccccc3)cc21 (stereo not drawn) [Example 23, 2-Oxide-3-(pyridin-3-yl)-7-(1-N,N-dimethylcarbamoyl-6-phenyllindol-3-ylcarbonyl)-1H,3H-pyrrolo[1,2-c]thiazole]",7.02
15,"CN(C)C(=O)Cn1cc(C(=O)c2ccn3c2CSC3c2ccc[n+]([O-])c2)c2ccc(-c3ccc(F)cc3)cc21 (stereo not drawn) [Example 75, 3-(1-Oxide-pyridin-3-yl)-7-[1-(2-N,N-dimethylcarbamoylmethyl)-6-(4-fluorophenyl)indol-3-ylcarbonyl]-1H,3H-pyrrolo[1,2-c]thiazole]",8.12
16,"COc1ccc(-c2ccc3c(C(=O)c4ccn5c4CSC5c4ccc[n+]([O-])c4)cn(C(=O)N(C)C)c3c2)cc1 (stereo not drawn) [Example 45, 3-(1-Oxide-pyridin-3-yl)-7-[1-N,N-dimethylcarbamoyl-6-(4-methoxyphenyl)indol-3-ylcarbonyl]-1H,3H-pyrrolo[1,2-c]thiazole]",8.39
17,"CN(C)C(=O)n1cc(C(=O)c2ccn3c2CSC3c2ccc[n+](C)c2)c2ccc(-c3ccccc3)cc21 (stereo not drawn) [Example 33, 3-(1-methylpyridin-3-yl)-7-(1-N,N-dimethylcarbamoyl-6-phenylindol-3-ylcarbonyl)-1H,3H-pyrrolo[1,2-c]thiazole]",5.55
18,CN(CO)C(=O)Cn1cc(C(=O)c2ccn3c2CSC3c2cccnc2)c2ccc(-c3ccc(F)cc3)cc21 (stereo not drawn) [Example 93],9.10
19,"CN(C)C(=O)n1cc(C(=O)c2ccn3c2CSC3c2cccnc2)c2ccccc21 (stereo not drawn) [Example 2, 3-(Pyridin-3-yl)-7-(1-N,N-dimethylcarbamoylindol-3-yl)carbonyl-1H,3H-pyrrolo[1,2-c]thiazole]",5.70
20,"O=C(c1ccn2c1CSC2c1cccnc1)c1c[nH]c2ccc(OCc3ccccc3)cc12 (stereo not drawn) [Example 3, 3-(Pyridin-3-yl)-7-(5-phenylmethoxyindol-3-yl)carbonyl-1H,3H-pyrrolo[1,2-c]thiazole]",6.74
21,"CN(C)C(=O)n1cc(C(=O)c2ccn3c2CSC3c2cccnc2)c2ccc(-c3ccccc3)cc21 (stereo not drawn) [Example 12, 3-(Pyridin-3-yl)-7-(1-N,N-dimethylcarbamoyl-6-phenylindol-3-yl)carbonyl-1H,3H-pyrrolo[1,2-c]thiazole]",7.64

# Next, values leading:
row,pKi,Compound
1,9.02,"CN(C)C(=O)n1cc(C(=O)c2ccn3c2CSC3c2cccnc2)c2ccc(-c3cccs3)cc21 (stereo not drawn) [Example 101, 3-(Pyridin-3-yl)-7-(1-N,N-dimethylcarbamoyl-6-thiophen-2-ylindol-3-ylcarbonyl)-1H,3H-pyrrolo[1,2-c]thiazole]"
2,6.24,"O=C(c1ccn2c1CSC2c1cccnc1)c1c[nH]c2cc(Br)ccc12 (stereo not drawn) [Example 63, 3-(Pyridin-3-yl)-7-(6-bromoindol-3-ylcarbonyl)-1H,3H-pyrrolo[1,2-c]thiazol]"
3,7.60,"NNC(=O)n1cc(C(=O)c2ccn3c2CSC3c2cccnc2)c2ccc(-c3ccc(F)cc3)cc21 (stereo not drawn) [Example 69, 3-(Pyridin-3-yl)-7-[1-hydrazinocarbonyl-6-(4-fluorophenyl)indol-3-ylcarbonyl]-1H,3H-pyrrolo[1,2-c]thiazole]"
4,8.66,CN(C)C(=O)n1cc(C(=NN)c2ccn3c2CSC3c2cccnc2)c2ccc(-c3ccc(F)cc3)cc21 (stereo not drawn) [Example 104]
5,8.21,"NC(=O)n1cc(C(=O)c2ccn3c2CSC3c2cccnc2)c2ccc(-c3ccc(F)cc3)cc21 (stereo not drawn) [Example 76, 3-(Pyridin-3-yl)-7-[1-carbamoyl-6-(4-fluorophenyl)indol-3-ylcarbonyl]-1H,3H-pyrrolo[1,2-c]thiazole]"
6,5.96,"O=C(c1ccn2c1CSC2c1cccnc1)c1cn(S(=O)(=O)c2ccccc2)c2cc(-c3ccc(F)cc3)ccc12 (stereo not drawn) [Example 61, 3-(Pyridin-3-yl)-7-[1-phenylsulfonyl-6-(4-fluorophenyl)indol-3-ylcarbonyl]-1H,3H-pyrrolo[1,2-c]thiazole]"
7,7.70,"CN(C)C(=O)n1cc(C(=O)c2ccn3c2CSC3c2cccnc2)c2ccc(-c3ccc(C(=O)NN)cc3)cc21 (stereo not drawn) [Example 91, 3-(1-Oxide-pyridin-3-yl)-7-[1-N,N-dimethylcarbamoyl-6-(4-hydrazinylcarbonylphenyl)indol-3-ylcarbonyl]-1H,3H-pyrrolo[1,2-c]thiazole]"
8,7.42,"CN(C)C(=O)n1cc(C(=O)c2ccn3c2CSC3c2ccc[n+]([O-])c2)c2ccc(Cl)cc21 (stereo not drawn) [Example 66, 3-(1-Oxide-Pyridin-3-yl)-7-(1-N,N-dimethylcarbamoyl-6-chloroindol-3-ylcarbonyl)-1H,3H-pyrrolo[1,2-c]thiazole]"
9,7.31,"Cn1cc(C(=O)c2ccn3c2CSC3c2ccc[n+]([O-])c2)c2ccc(OCc3ccccc3)cc21 (stereo not drawn) [Example 58, 3-(1-Oxide-pyridin-3-yl)-7-(1-methyl-6-phenylmethoxyindol-3-ylcarbonyl)-1H,3H-pyrrolo[1,2-c]thiazole]"
10,7.05,"CN(C)C(=O)n1cc(C(=O)c2ccn3c2CSC3c2cccnc2)c2ccc(Cl)cc21 (stereo not drawn) [Example 65, 3-(Pyridin-3-yl)-7-(1-N,N-dimethylcarbamoyl-6-chloroindol-3-ylcarbonyl)-1H,3H-pyrrolo[1,2-c]thiazole]"
